“Also recorded” adds a separate entry of the source. Where two headings read alike, the source gives them in different places. Non-standard residues stand in square brackets, D forms with d. Residues, ends and D or L forms follow the SMILES beside them. *: point of attachment. Sta = CC(C)C[C@H](N)[C@@H](O)CC(=O)O; Isovaleryl = CC(C)CC(=O)*
Legend:
gastric ulcer = settings: cited from earlier work
duodenal ulcer = settings: cited from earlier work
stress ulceration = settings: two or more days of pretreatment; Strauss et al. 1977; cited from earlier work
gastric acid secretion [1] = settings: cited from earlier work
[2] = test system: gastric erosions produced in rats by the oral instillation of 1.0 ml of 0.75 N HCl; experiment: HCl-induced gastric erosions in rats (modified method of Robert et al.); type: in vivo, rat (Long Evans)
Experimental: In the tests described below, gastric erosions produced in rats by the oral instillation of 1.0 ml of 0.75 N HCl were compared with those in rats which had been pretreated with etintidine or with etintidine and pepstatin.
A modification of the method of Robert et al., [Gastroenterology, 77, 433-443 (1979)] was employed to produce gastric erosions. Adult male, Long Evans rats weighing 280-300 g (Blue Spruce Farms, Alton, New York) were used. The animals were individually caged and food and water were removed 24 and 18 hours, respectively, prior to testing. On the following day, etintidine was administered orally to the animals 30 minutes before 1.0 ml of 0.75 N HCl was instilled into the stomach by gavage. […]
The stomachs were removed from the animals, cut along the greater curvature, opened, rinsed with saline and pinned out flat in a standard position for macroscopic examination and scoring of erosions. The stomachs were photographed with a Polaroid® Close Up camera (Polaroid Corporation) and scoring was determined from the photographs. […]
Data were analyzed using the t-test for unpaired data and ED50 values were calculated from dose response data using probit analysis [Finney, Probit Analysis, 3rd ed., University Press, Cambridge, England (1971)]. […]

[3] = Toxicity profile in pharmacological studies in animals; type: in vivo
gastric acid secretion [4] = experiment: Inhibitory effect on gastric acid secretion versus pepsin activity; settings: in vivo
histamine H2 -receptor = histamine H2 -receptor (Homo sapiens, UniProt P25021); settings: Cavanagh et al. 1980; cited from earlier work
[5] = test system: meal stimulated gastric acid secretion; settings: patients with inactive duodenal ulcers; Myers and Peterson 1980; cited from earlier work
[6] = test system: stomach ulcers in the pylorus ligated (Shay) rat; experiment: Ulcer formation in the pylorus ligated (Shay) rat; type: in vivo; settings: 18 hour pylorus ligated rat, 20 mg/kg po, previous studies in applicant's laboratories
pepsin [7] = experiment: Pepsin activity in the 18 hour pylorus ligated rat; type: in vivo; settings: 20 mg/kg po
[8] = Absorption and fecal excretion after oral administration; type: in vivo, animals
[9] = test system: stomach ulcers in the pylorus ligated (Shay) rat; settings: Umezawa et al. 1970; cited from earlier work
[10] = all animal species studied; Svendsen et al. 1976; cited from earlier work
[11] = daily oral doses of 700 mg for up to three months; Svendsen et al. 1976; cited from earlier work
pepsin [12] = settings: cited from earlier work
pepsin [13] = settings: in the stomach; U.S. Pat. No. 4,101,650; cited from earlier work
[14] = British Medical Journal review 1980
[15] = patients with ulcer dyspepsia, Svendsen et al. 1976

histamine H2 -receptor, sequence (P25021 whole entry, species assumed): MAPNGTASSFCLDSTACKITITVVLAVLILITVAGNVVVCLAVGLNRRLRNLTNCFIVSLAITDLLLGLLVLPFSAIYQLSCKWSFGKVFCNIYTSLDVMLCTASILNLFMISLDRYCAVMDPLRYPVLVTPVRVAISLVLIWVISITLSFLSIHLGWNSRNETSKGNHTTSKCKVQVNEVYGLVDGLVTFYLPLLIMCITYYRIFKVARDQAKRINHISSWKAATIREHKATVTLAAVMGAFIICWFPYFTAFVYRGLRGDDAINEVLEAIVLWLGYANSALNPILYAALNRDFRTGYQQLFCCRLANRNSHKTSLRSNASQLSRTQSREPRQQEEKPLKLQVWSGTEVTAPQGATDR

With sucralfate as the compound, how does the “benefit in patients with gastric ulcer” value (gastric ulcer; [14]) read?
Its value is “none”.

Which “benefit / healing in patients with duodenal ulcer” value (duodenal ulcer; [14]) does the source give for Amylopectin here?
The value was “no significant benefit”.

Which ulcer formation (stress ulceration) does the source give for `CN/C(=N/CCSCc1nc[nH]c1C)NC#N` [cimetidine] here?
Its ulcer formation is “significantly decreased ulcer formation”.

What about the “effect on pepsin secretion” value (gastric acid secretion [1]; Binder and Donaldson 1978) of the same compound?
The value was “less marked”.

What about the “basal and stimulated gastric acid secretion” value (gastric acid secretion [1]; normal volunteers, Burland et al. 1975) of the same compound?
The value was “antagonize both basal and stimulated gastric acid secretion”.

And the “basal and stimulated gastric acid secretion” value (gastric acid secretion [1]; patients with duodenal ulcer, Longstreth et al. 1976)?
Its value is “antagonize both basal and stimulated gastric acid secretion”.

With `C#CCN/C(=N\C#N)NCCSCc1nc[nH]c1C` [etintidine] as the compound, how does the “ED50 for inhibition of gastric erosions” value ([2]; etintidine po 30 min before 1.0 ml 0.75 N HCl, combination also received pepstatin 20 mg/kg po 10 min before HCl, FIG. 2) read?
Its value is 62 mg/kg.

What about the “formation of gastric erosions” value ([2]; pretreatment with 17.5, 35, 70 or 140 mg/kg etintidine po) of the same compound?
Its value is “decreased the formation of gastric erosions in a dose-related manner”.

And the toxicity [3]?
Its toxicity is “relatively nontoxic”.

And the “toxicity profile compared with cimetidine” value [3]?
The value was “substantially the same as that of the commercial H2 -antagonist cimetidine”.

And the “inhibitory effect on gastric acid secretion compared with pepsin activity” value (gastric acid secretion [4])?
The value was “significantly greater than on pepsin activity”.

What about the “potency relative to cimetidine” value (histamine H2 -receptor) of the same compound?
The value was “about twice as potent as cimetidine”.

And the “meal stimulated gastric acid secretion” value [5]?
The value was “effectively antagonizes meal stimulated gastric acid secretion”.

Which results are given for `CC(C)CC(=O)N[C@H](C(=O)N[C@H](C(=O)N[C@@H](CC(C)C)[C@@H](O)CC(=O)N[C@@H](C)C(=O)N[C@@H](CC(C)C)[C@@H](O)CC(=O)O)C(C)C)C(C)C` [pepstatin] (Isovaleryl-VV[Sta]A[Sta]-OH)?
ulcer formation [6]: antagonized ulcer formation; pepsin activity (pepsin [7]): completely inhibited pepsin activity; absorption upon oral administration [8]: essentially unabsorbed; also recorded: only poorly absorbed; fraction of compound excreted in the feces ([8]; animal studies, within 72 hours): more than 90%; formation of stomach ulcers [9]: prevent the formation of stomach ulcers; healing or symptomatology of duodenal ulcer versus placebo (duodenal ulcer; 100 mg seven times a day, double-blind randomized trial, Bonnevie et al. 1979): no significant difference between pepstatin and placebo; benefit / healing in patients with duodenal ulcer (duodenal ulcer; [14]): ineffective; preventing recurrent bleeding in patients admitted with haematemesis and melaena (duodenal ulcer; [14]): ineffective; healing or symptomatology of gastric ulcer versus placebo (gastric ulcer; 100 mg seven times a day, double-blind randomized trial, Svendsen et al. 1979): not able to detect any influence of pepstatin; LD50 [10]: exceeded 3000 mg/kg; side effects [11]: no side effects were observed; gastric acidity (pepsin [12]; [15]): no effect on the gastric acidity; gastric peptic activity (pepsin [12]; [15]): inhibits gastric peptic activity; duration of inhibition of peptic activity of gastric juice (pepsin [12]; ulcer patients, 100 mg doses seven times a day): 18 hours a day; duration of pepsin suppression (pepsin [13]): about 1 hours

For `CC1(C)[C@@H](OC(=O)CCC(=O)O)CC[C@]2(C)[C@H]3C(=O)C=C4[C@@H]5C[C@@](C)(C(=O)O)CC[C@]5(C)CC[C@@]4(C)[C@]3(C)CC[C@@H]12` [carbenoxolone], which ulcer formation (stress ulceration) is on record?
The ulcer formation was “significantly decreased ulcer formation”.

From patent publication US4339439A, “Pharmaceutical methods and compositions” (Bristol-Myers Company, priority 1981, dated 1982)
